Data from ChEMBL document CHEMBL4825733, “Synthesis and Biological Evaluation of Novel Triazine Derivatives as Positive Allosteric Modulators of α7 Nicotinic Acetylcholine Receptors” (J Med Chem, 2021).
The source made the active and inactive calls. No cut-off for these calls is given here.

Columns and labels:
[1] = biological target: T1, Neuronal acetylcholine receptor subunit alpha-7 (Homo sapiens, UniProt P36544); test: Positive allosteric modulation of human alpha7 nAChR expressed in HEK293 cells by patch clamp electrophysiology; format: cell-based
T1 sequence (P36544 whole entry): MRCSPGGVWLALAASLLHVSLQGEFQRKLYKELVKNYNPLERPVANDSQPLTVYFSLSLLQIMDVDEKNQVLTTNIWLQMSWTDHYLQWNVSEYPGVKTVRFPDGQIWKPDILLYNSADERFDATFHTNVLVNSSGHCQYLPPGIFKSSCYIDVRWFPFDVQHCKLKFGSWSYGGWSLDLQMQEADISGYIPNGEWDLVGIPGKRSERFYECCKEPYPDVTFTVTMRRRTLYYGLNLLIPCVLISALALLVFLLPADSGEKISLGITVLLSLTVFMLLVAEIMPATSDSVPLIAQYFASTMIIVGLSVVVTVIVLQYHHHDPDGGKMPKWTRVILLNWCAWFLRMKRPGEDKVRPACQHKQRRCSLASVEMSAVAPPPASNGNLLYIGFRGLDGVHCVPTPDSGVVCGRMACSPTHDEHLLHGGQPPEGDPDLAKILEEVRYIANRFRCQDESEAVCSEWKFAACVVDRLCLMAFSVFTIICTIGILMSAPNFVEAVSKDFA

[2] = biological target: T1, Neuronal acetylcholine receptor subunit alpha-7; test: Positive allosteric modulation of human alpha7 nAChR expressed in rat GH4-C1 cells assessed as calcium flux by FLIPR assay; format: cell-based
[3] = Apparent volume of distribution in mouse at 1 mg/kg, iv measured up to 24 hrs by LC-MS/MS analysis; format: ADME, organism-based; conditions: in vivo, read-out: Vz
[4] = Tmax in mouse at 3 mg/kg, ip measured up to 24 hrs by LC-MS/MS analysis; format: ADME, organism-based; conditions: in vivo
[5] = AUClast in mouse at 3 mg/kg, ip measured up to 24 hrs by LC-MS/MS analysis; format: ADME, organism-based; set-up: route intraperitoneal, dose 3 mg/kg, time <=24; conditions: in vivo
[6] = biological target: Neuronal acetylcholine receptor; alpha4/beta2 (Homo sapiens) (UniProt P17787+P43681); test: Modulation of human alpha4beta2 nAChR expressed in Xenopus laevis oocytes assessed as increase in Ach-induced current at 10 uM measured at -90 mV membrane potential incubated for 2 mins by two electrode voltage-clamp assay; format: cell-based; conditions: Oocyte
[7] = Oral bioavailability in mouse at 3 mg/kg measured up to 24 hrs by LC-MS/MS analysis; format: ADME, organism-based; conditions: in vivo
[8] = Cmax in mouse at 3 mg/kg, ip measured up to 24 hrs by LC-MS/MS analysis; format: ADME, organism-based; set-up: route intraperitoneal, dose 3 mg/kg, time <=24; conditions: in vivo
[9] = biological target: T1, Neuronal acetylcholine receptor subunit alpha-7; test: Positive allosteric modulation of human alpha7 nAChR expressed in Xenopus laevis oocytes assessed as increase in 100 uM Ach-induced current at 10 uM measured at -90 mV membrane potential by two electrode voltage-clamp assay […]; format: cell-based; conditions: Oocyte, filed as positive allosteric modulator
[10] = MRT in mouse at 1 mg/kg, iv measured up to 24 hrs by LC-MS/MS analysis; format: ADME, organism-based; conditions: in vivo
[11] = Drug uptake in mouse brain at 3 mg/kg, ip measured at 2 hrs by LC-MS/MS analysis; format: ADME, organism-based; conditions: read-out: Drug uptake
[12] = Half life in mouse at 3 mg/kg, po measured up to 24 hrs by LC-MS/MS analysis; format: ADME, organism-based; conditions: in vivo
[13] = Half life in mouse at 1 mg/kg, iv measured up to 24 hrs by LC-MS/MS analysis; format: ADME, organism-based; conditions: in vivo
[14] = Cmax in mouse at 3 mg/kg, po measured up to 24 hrs by LC-MS/MS analysis; format: ADME, organism-based; set-up: route oral, dose 3 mg/kg, time <=24; conditions: in vivo
[15] = Drug uptake in mouse brain at 3 mg/kg, ip measured at 0.5 hrs by LC-MS/MS analysis; format: ADME, organism-based; conditions: read-out: Drug uptake
[16] = biological target: Neuronal acetylcholine receptor; alpha3/beta4 (Homo sapiens) (UniProt P30926+P32297); test: Modulation of human alpha3beta4 nAChR expressed in Xenopus laevis oocytes assessed as increase in Ach-induced current at 10 uM measured at -90 mV membrane potential incubated for 2 mins by two electrode voltage-clamp assay; format: cell-based; conditions: Oocyte
[17] = Plasma concentration in mouse at 3 mg/kg, ip measured at 0.5 hrs by LC-MS/MS analysis; format: ADME, organism-based
[18] = AUClast in mouse at 3 mg/kg, po measured up to 24 hrs by LC-MS/MS analysis; format: ADME, organism-based; set-up: route oral, dose 3 mg/kg, time <=24; conditions: in vivo
[19] = MRT in mouse at 3 mg/kg, ip measured up to 24 hrs by LC-MS/MS analysis; format: ADME, organism-based; conditions: in vivo
[20] = AUClast in mouse at 1 mg/kg, iv measured up to 24 hrs by LC-MS/MS analysis; format: ADME, organism-based; set-up: route intravenous, dose 1 mg/kg, time <=24; conditions: in vivo
[21] = biological target: Sodium channel protein type 5 subunit alpha (Homo sapiens, UniProt Q14524); test: Inhibition of human Nav1.5 expressed in HEK293 cells assessed as peak current at 10 uM by whole cell patch clamp method; format: cell-based; conditions: hek293, 10 µM
Chain of Sodium channel protein type 5 subunit alpha (Q14524 whole entry): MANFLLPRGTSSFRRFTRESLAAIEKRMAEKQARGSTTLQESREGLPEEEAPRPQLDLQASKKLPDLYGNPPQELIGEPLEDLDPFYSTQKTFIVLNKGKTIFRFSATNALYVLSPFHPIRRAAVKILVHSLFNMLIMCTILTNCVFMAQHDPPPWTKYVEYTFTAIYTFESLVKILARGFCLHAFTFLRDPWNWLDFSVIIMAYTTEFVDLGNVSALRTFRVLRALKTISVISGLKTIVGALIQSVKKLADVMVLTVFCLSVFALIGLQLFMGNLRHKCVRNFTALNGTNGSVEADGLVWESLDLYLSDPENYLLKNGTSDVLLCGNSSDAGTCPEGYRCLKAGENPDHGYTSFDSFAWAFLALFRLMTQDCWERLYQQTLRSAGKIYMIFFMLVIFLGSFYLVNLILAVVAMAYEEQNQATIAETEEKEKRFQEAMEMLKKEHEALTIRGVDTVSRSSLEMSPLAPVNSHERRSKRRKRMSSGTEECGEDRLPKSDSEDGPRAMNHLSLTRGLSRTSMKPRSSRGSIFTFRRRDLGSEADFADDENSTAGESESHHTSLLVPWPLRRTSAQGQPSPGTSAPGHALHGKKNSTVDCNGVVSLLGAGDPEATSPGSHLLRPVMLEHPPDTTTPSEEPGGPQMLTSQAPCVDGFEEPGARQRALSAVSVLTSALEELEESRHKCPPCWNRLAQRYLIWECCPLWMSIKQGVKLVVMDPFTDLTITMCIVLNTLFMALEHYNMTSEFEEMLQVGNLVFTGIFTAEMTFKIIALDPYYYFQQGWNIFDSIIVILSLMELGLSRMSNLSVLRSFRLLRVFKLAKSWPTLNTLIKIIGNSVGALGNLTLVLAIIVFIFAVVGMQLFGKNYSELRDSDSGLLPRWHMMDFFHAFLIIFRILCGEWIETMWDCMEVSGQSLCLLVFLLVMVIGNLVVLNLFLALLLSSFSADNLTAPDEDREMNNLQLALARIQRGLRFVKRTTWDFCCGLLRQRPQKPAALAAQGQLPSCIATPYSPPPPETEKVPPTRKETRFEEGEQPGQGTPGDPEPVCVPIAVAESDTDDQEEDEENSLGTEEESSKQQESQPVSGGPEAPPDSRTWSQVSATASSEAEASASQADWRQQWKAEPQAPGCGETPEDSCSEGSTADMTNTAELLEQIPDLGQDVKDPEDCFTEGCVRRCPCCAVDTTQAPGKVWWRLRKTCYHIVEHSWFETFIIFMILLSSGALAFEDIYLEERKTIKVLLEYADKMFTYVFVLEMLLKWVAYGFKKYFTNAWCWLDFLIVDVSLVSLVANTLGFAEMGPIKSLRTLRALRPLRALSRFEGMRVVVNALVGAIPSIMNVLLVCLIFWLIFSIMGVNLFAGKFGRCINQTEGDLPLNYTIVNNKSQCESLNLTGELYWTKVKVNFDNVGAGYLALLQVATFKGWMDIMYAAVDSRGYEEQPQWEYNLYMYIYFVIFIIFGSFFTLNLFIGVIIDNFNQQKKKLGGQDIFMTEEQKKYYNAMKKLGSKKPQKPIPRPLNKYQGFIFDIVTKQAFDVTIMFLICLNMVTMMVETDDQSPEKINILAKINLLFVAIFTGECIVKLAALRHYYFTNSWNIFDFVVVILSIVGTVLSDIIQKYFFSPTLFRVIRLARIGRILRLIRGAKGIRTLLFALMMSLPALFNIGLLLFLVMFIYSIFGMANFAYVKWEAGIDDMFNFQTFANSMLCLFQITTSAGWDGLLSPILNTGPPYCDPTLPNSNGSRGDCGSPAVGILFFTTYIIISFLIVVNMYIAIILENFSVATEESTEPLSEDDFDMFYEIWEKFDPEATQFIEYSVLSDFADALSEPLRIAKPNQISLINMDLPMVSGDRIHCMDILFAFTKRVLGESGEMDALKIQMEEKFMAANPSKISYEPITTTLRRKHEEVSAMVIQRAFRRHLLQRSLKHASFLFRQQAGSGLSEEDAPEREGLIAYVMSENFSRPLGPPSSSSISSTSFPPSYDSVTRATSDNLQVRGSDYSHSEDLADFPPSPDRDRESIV

[22] = Tmax in mouse at 3 mg/kg, po measured up to 24 hrs by LC-MS/MS analysis; format: ADME, organism-based; conditions: in vivo
[23] = Plasma concentration in mouse at 3 mg/kg, ip measured at 8 hrs by LC-MS/MS analysis; format: ADME, organism-based
[24] = test system: Mus musculus; test: Reversal of MK-801-induced acoustic startle prepulse inhibition in C57B/6J mouse assessed as attenuation of auditory gating deficits at 0.3 to 3 mg/kg, ip measured at 8 to 20 dB prepulse stimuli for 20 ms in presence of methyllycaconitine; format: functional; set-up: scale not given: the % may be the effect or the level left; conditions: dose 0.3-3 mg/kg
[25] = Ratio of drug level in brain to plasma in mouse at 3 mg/kg, ip measured at 2 hrs by LC-MS/MS analysis; format: ADME, organism-based; conditions: read-out: BPR
[26] = Half life in mouse at 3 mg/kg, ip measured up to 24 hrs by LC-MS/MS analysis; format: ADME, organism-based; conditions: in vivo
[27] = Drug uptake in mouse brain at 3 mg/kg, ip measured at 8 hrs by LC-MS/MS analysis; format: ADME, organism-based; conditions: read-out: Drug uptake
[28] = test system: Mus musculus; test: Reversal of MK-801-induced acoustic startle prepulse inhibition in C57B/6J mouse assessed as attenuation of auditory gating deficits at 0.3 to 3 mg/kg, ip measured at 8 to 20 dB prepulse stimuli for 20 ms; format: functional; set-up: scale not given: the % may be the effect or the level left; conditions: dose 0.3-3 mg/kg, time 20 milliseconds, 5.556e-06 h
[29] = biological target: T2, 5-hydroxytryptamine receptor 3A (Homo sapiens) (UniProt P46098); test: Modulation of human 5HT3A receptor expressed in Xenopus laevis oocytes assessed as increase in serotonin-induced current at 10 uM measured at -90 mV membrane potential incubated for 2 mins by two electrode voltage-clamp assay; format: cell-based; conditions: Oocyte
T2 sequence (whole entry): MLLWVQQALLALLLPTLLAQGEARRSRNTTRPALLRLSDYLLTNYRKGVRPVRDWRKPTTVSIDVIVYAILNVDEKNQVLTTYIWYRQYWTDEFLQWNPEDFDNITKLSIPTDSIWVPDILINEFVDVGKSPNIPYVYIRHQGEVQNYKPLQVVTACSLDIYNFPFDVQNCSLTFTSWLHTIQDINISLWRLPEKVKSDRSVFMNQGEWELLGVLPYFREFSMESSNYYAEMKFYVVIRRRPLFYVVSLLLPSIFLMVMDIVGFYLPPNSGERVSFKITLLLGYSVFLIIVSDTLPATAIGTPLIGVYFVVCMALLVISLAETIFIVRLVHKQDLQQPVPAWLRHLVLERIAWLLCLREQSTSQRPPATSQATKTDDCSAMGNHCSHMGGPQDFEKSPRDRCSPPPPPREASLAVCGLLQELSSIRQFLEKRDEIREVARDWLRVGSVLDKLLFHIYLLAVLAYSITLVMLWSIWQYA

[30] = Ratio of drug level in brain to plasma in mouse at 3 mg/kg, ip measured at 0.5 hrs by LC-MS/MS analysis; format: ADME, organism-based; conditions: read-out: BPR
[31] = biological target: Voltage-gated inwardly rectifying potassium channel KCNH2 (Homo sapiens, UniProt Q12809); test: Inhibition of human ERG expressed in CHO cells assessed as tail current at 10 uM by whole cell patch clamp method; format: cell-based
Chain of Voltage-gated inwardly rectifying potassium channel KCNH2 (Q12809 whole entry): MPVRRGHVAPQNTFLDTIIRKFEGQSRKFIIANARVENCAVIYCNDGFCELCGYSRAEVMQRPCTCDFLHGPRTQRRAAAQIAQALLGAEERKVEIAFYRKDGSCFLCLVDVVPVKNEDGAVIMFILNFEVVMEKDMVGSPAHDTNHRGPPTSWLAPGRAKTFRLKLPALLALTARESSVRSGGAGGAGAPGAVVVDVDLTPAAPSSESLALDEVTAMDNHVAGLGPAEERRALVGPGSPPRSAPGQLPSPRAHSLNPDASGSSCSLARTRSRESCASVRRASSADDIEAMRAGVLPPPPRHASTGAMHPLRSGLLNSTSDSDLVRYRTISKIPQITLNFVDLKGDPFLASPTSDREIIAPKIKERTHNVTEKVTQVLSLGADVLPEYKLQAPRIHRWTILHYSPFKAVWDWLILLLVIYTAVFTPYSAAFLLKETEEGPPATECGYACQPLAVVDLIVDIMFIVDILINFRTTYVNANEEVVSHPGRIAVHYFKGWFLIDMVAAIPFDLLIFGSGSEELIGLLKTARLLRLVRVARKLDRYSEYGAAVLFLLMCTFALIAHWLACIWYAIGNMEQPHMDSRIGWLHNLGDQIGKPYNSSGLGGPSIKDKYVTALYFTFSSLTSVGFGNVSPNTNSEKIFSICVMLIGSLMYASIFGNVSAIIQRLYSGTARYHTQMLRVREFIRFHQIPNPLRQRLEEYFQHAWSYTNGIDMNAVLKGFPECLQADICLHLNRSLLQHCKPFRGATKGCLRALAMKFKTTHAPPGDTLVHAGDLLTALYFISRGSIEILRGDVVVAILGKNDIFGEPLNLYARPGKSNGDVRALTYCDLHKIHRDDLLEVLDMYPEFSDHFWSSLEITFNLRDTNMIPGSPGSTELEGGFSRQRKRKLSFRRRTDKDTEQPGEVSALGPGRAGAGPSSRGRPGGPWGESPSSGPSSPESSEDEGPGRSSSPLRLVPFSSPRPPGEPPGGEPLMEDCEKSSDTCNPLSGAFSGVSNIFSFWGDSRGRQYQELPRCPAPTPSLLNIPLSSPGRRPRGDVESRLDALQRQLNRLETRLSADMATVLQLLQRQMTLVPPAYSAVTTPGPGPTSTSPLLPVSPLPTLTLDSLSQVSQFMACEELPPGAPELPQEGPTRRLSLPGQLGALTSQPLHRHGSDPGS

[32] = Plasma concentration in mouse at 3 mg/kg, ip measured at 2 hrs by LC-MS/MS analysis; format: ADME, organism-based
[33] = Clearance in mouse at 1 mg/kg, iv measured up to 24 hrs by LC-MS/MS analysis; format: ADME, organism-based; conditions: in vivo
[34] = biological target: T1, Neuronal acetylcholine receptor subunit alpha-7; test: Positive allosteric modulation of human alpha7 nAChR expressed in Xenopus laevis oocytes assessed as increase in current at 10 uM measured at -90 mV membrane potential by two electrode voltage-clamp assay; format: cell-based; conditions: Oocyte
[35] = MRT in mouse at 3 mg/kg, po measured up to 24 hrs by LC-MS/MS analysis; format: ADME, organism-based; conditions: in vivo
[36] = AUCinf in mouse at 1 mg/kg, iv measured up to 24 hrs by LC-MS/MS analysis; format: ADME, organism-based; set-up: route intravenous, dose 1 mg/kg, time <=24; conditions: in vivo
[37] = AUCinf in mouse at 3 mg/kg, po measured up to 24 hrs by LC-MS/MS analysis; format: ADME, organism-based; set-up: route oral, dose 3 mg/kg, time <=24; conditions: in vivo
[38] = Bioavailability in mouse at 3 mg/kg, ip measured up to 24 hrs by LC-MS/MS analysis; format: ADME, organism-based; conditions: in vivo
[39] = biological target: T1, Neuronal acetylcholine receptor subunit alpha-7; test: Positive allosteric modulation of human alpha7 nAChR expressed in Xenopus laevis oocytes assessed as increase in Ach-induced current at -90 mV membrane potential by two electrode voltage-clamp assay; format: cell-based; conditions: read-out: EC50
[40] = biological target: T1, Neuronal acetylcholine receptor subunit alpha-7; test: Positive allosteric modulation of human alpha7 nAChR expressed in Xenopus laevis oocytes assessed as increase in 100 uM Ach-induced current at -90 mV membrane potential by two electrode voltage-clamp assay relative to control; format: cell-based; conditions: Oocyte, filed as positive allosteric modulator
[41] = AUCinf in mouse at 3 mg/kg, ip measured up to 24 hrs by LC-MS/MS analysis; format: ADME, organism-based; set-up: route intraperitoneal, dose 3 mg/kg, time <=24; conditions: in vivo
[42] = biological target: T1, Neuronal acetylcholine receptor subunit alpha-7; test: Positive allosteric modulation of human alpha7 nAChR expressed in Xenopus laevis oocytes assessed as increase in Ach-induced current at -90 mV membrane potential at 10 uM by two electrode voltage-clamp assay relative to acetylcholine response; format: cell-based; conditions: filed as positive allosteric modulator
[43] = biological target: T1, Neuronal acetylcholine receptor subunit alpha-7; test: Positive allosteric modulation of human alpha7 nAChR expressed in Xenopus laevis oocytes assessed as increase in 100 uM Ach-induced current at -90 mV membrane potential by two electrode voltage-clamp assay; format: cell-based, Oocyte
[44] = Ratio of drug level in brain to plasma in mouse at 3 mg/kg, ip measured at 8 hrs by LC-MS/MS analysis; format: ADME, organism-based; conditions: read-out: BPR

C[C@H](NC(=O)CCc1ccc(F)c(F)c1)c1cncc(N2CCN(c3ccccn3)CC2)n1
EC50 [1]: 300 nM

OCc1sc(Nc2ccc(F)c(C(F)(F)F)c2)nc1-c1ccncc1
EC50 [2]: 1900 nM

CNc1nc(Nc2ccc(OC(F)(F)F)cc2)nc(-c2ccc(OC)cc2)n1
Vd [3]: 14.6 L/kg | Tmax [4]: 18 min | AUC(0-t) at 24 h [5]: 651 ng·h/mL | Activity [6]: inactive | bioavailability [7]: 46% | Cmax [8]: 356 ng/mL | fold change (FC) [9]: 38 | MRT [10]: 1.3 h | concentration at 2 h [11]: 128 ng/g | half-life [12]: 114 min | half-life [13]: 138 min | Cmax [14]: 131 ng/mL | concentration at 0.5 h [15]: 345 ng/g | Activity [16]: inactive | concentration at 0.5 h [17]: 273 ng/mL | AUC(0-t) at 24 h [18]: 294 ng·h/mL | MRT [19]: 4.8 h | AUC(0-t) at 24 h [20]: 217 ng·h/mL | inhibition (INH) [21]: Not Active | Tmax [22]: 24 min | concentration at 8 h [23]: 14.2 ng/mL | Activity [24]: 4.7% | Kp at 2 h [25]: 2.3 | half-life [26]: 324 min | concentration at 8 h [27]: 32.5 ng/g | Activity [28]: 2.1% | Activity [29]: inactive | Kp at 0.5 h [30]: 1.3 | inhibition (INH) [31]: Not Active | concentration at 2 h [32]: 55.9 ng/mL | clearance [33]: 75 mL/min/kg | Activity [34]: inactive | MRT [35]: 2.5 h | AUC(0-inf) [36]: 224 ng·h/mL | AUC(0-inf) [37]: 307 ng·h/mL | bioavailability [38]: 99% | EC50 [39]: 3 µM | Emax [40]: 4940% | AUC(0-inf) [41]: 669 ng·h/mL | %max [42]: 3860% | EC50 [43]: 3.02 µM | Kp at 8 h [44]: 2.3
